Key:
[1] = test system: HL-60; experiment: Growth inhibition of human HL60 cells at 1 uM after 3 days; type: functional; details: HL-60, 72 h
[2] = test system: HL-60; experiment: Growth inhibition of human HL60 cells at 10 uM after 3 days; type: functional; details: HL-60, 72 h

Row | SMILES | inhibition at 1 µM [1] [%] | inhibition at 10 µM [2] [%]
1 | C[C@]12C[C@H](NC3CCCC3)[C@@H](O)C[C@@H]1CC[C@@H]1[C@@H]2CC[C@]2(C)[C@@H](O)CC[C@@H]12 | 0 | 0
2 | CCCN[C@H]1C[C@@]2(C)[C@@H](CC[C@@H]3[C@@H]2CC[C@]2(C)[C@@H](O)CC[C@@H]32)C[C@@H]1O | 0 | 0.4
3 | C[C@]12C[C@H](NCCCc3ccccc3)[C@@H](O)C[C@@H]1CC[C@@H]1[C@@H]2CC[C@]2(C)[C@@H](O)CC[C@@H]12 | 0.9 | 37.6
4 | C[C@]12C[C@H](NCCc3ccccc3)[C@@H](O)C[C@@H]1CC[C@@H]1[C@@H]2CC[C@]2(C)[C@@H](O)CC[C@@H]12 | 9.5 | 42.8
5 | C[C@]12C[C@H](N3CCN(c4ccccn4)CC3)[C@@H](O)C[C@@H]1CC[C@@H]1[C@@H]2CC[C@]2(C)[C@@H](O)CC[C@@H]12 | 0 | 26.1
6 | CC(C)CCN[C@H]1C[C@@]2(C)[C@@H](CC[C@@H]3[C@@H]2CC[C@]2(C)[C@@H](O)CC[C@@H]32)C[C@@H]1O | 0 | 3
7 | CC(C)C(=O)N1CCN([C@H]2C[C@@]3(C)[C@@H](CC[C@@H]4[C@@H]3CC[C@]3(C)[C@@H](O)CC[C@@H]43)C[C@@H]2O)CC1 | 0 | 1.1
8 | C[C@]12C[C@H](N3CCCCC3)[C@@H](O)C[C@@H]1CC[C@@H]1[C@@H]2CC[C@]2(C)[C@@H](O)CC[C@@H]12 | 0 | 1.5
9 | C[C@]12C[C@H](N3CCNCC3)[C@@H](O)C[C@@H]1CC[C@@H]1[C@@H]2CC[C@]2(C)[C@@H](O)CC[C@@H]12 | 6.9 | 5.9
10 | CCCCCCCCCCN[C@H]1C[C@@]2(C)[C@@H](CC[C@@H]3[C@@H]2CC[C@]2(C)[C@@H](O)CC[C@@H]32)C[C@@H]1O | 0 | 96.9
11 | C[C@]12C[C@H](N3CCN(Cc4ccc5c(c4)OCO5)CC3)[C@@H](O)C[C@@H]1CC[C@@H]1[C@@H]2CC[C@]2(C)[C@@H](O)CC[C@@H]12 | 0 | 26.1
12 | CCCCCCCCCCCCCCCCN[C@H]1C[C@@]2(C)[C@@H](CC[C@@H]3[C@@H]2CC[C@]2(C)[C@@H](O)CC[C@@H]32)C[C@@H]1O | 0 | 94.8
13 | CC(C)CN1CCN([C@H]2C[C@@]3(C)[C@@H](CC[C@@H]4[C@@H]3CC[C@]3(C)[C@@H](O)CC[C@@H]43)C[C@@H]2O)CC1 | 0 | 5
14 | C[C@]12C[C@H](N3CCN(C(=O)C4CCCCC4)CC3)[C@@H](O)C[C@@H]1CC[C@@H]1[C@@H]2CC[C@]2(C)[C@@H](O)CC[C@@H]12 | 0 | 3.9
15 | CCCCCCCCCCCN(CCCCCCCCCCC)[C@H]1C[C@@]2(C)[C@@H](CC[C@@H]3[C@@H]2CC[C@]2(C)[C@@H](O)CC[C@@H]32)C[C@@H]1O | 11.7 | 7
16 | CC(=O)N1CCN([C@H]2C[C@@]3(C)[C@@H](CC[C@@H]4[C@@H]3CC[C@]3(C)[C@@H](O)CC[C@@H]43)C[C@@H]2O)CC1 | 0 | 0
17 | C[C@]12C[C@H](N3CCC(N4CCCCC4)CC3)[C@@H](O)C[C@@H]1CC[C@@H]1[C@@H]2CC[C@]2(C)[C@@H](O)CC[C@@H]12 | 0 | 77.8

Row | SMILES | inhibition at 1 µM [1] [%] | inhibition at 10 µM [2] [%]
18 | CCCCN1CCN([C@H]2C[C@@]3(C)[C@@H](CC[C@@H]4[C@@H]3CC[C@]3(C)[C@@H](O)CC[C@@H]43)C[C@@H]2O)CC1 | 0 | 7.6
19 | CN1CCN([C@H]2C[C@@]3(C)[C@@H](CC[C@@H]4[C@@H]3CC[C@]3(C)[C@@H](O)CC[C@@H]43)C[C@@H]2O)CC1 | 0 | 16.2
20 | CCCCCN[C@H]1C[C@@]2(C)[C@@H](CC[C@@H]3[C@@H]2CC[C@]2(C)[C@@H](O)CC[C@@H]32)C[C@@H]1O | 0 | 0
21 | C[C@]12C[C@H](N3CCC(Cc4ccccc4)CC3)[C@@H](O)C[C@@H]1CC[C@@H]1[C@@H]2CC[C@]2(C)[C@@H](O)CC[C@@H]12 | 9.9 | 57.9
22 | C[C@]12C[C@H](N3CCCNCC3)[C@@H](O)C[C@@H]1CC[C@@H]1[C@@H]2CC[C@]2(C)[C@@H](O)CC[C@@H]12 | 1 | 21.4
23 | CCCC(=O)N1CCN([C@H]2C[C@@]3(C)[C@@H](CC[C@@H]4[C@@H]3CC[C@]3(C)[C@@H](O)CC[C@@H]43)C[C@@H]2O)CC1 | 0 | 4.6
24 | CCCCCCCCCN(CCCCCCCCC)[C@H]1C[C@@]2(C)[C@@H](CC[C@@H]3[C@@H]2CC[C@]2(C)[C@@H](O)CC[C@@H]32)C[C@@H]1O | 9.8 | 41.5
25 | CC(C)(C)N[C@H]1C[C@@]2(C)[C@@H](CC[C@@H]3[C@@H]2CC[C@]2(C)[C@@H](O)CC[C@@H]32)C[C@@H]1O | 0 | 0.5
26 | C[C@]12C[C@H](N3CCCC3)[C@@H](O)C[C@@H]1CC[C@@H]1[C@@H]2CC[C@]2(C)[C@@H](O)CC[C@@H]12 | 0 | 9.9
27 | C[C@]12C[C@H](NCC34CC5CC(CC(C5)C3)C4)[C@@H](O)C[C@@H]1CC[C@@H]1[C@@H]2CC[C@]2(C)[C@@H](O)CC[C@@H]12 | 6.4 | 85.8
28 | CC(C)(C)CN[C@H]1C[C@@]2(C)[C@@H](CC[C@@H]3[C@@H]2CC[C@]2(C)[C@@H](O)CC[C@@H]32)C[C@@H]1O | 0 | 3.3
29 | C[C@]12C[C@H](N3CCN(C(=O)c4ccccc4)CC3)[C@@H](O)C[C@@H]1CC[C@@H]1[C@@H]2CC[C@]2(C)[C@@H](O)CC[C@@H]12 | 0 | 11.4
30 | CCC(C)(C)N[C@H]1C[C@@]2(C)[C@@H](CC[C@@H]3[C@@H]2CC[C@]2(C)[C@@H](O)CC[C@@H]32)C[C@@H]1O | 0 | 1.8
31 | CC(C)CN[C@H]1C[C@@]2(C)[C@@H](CC[C@@H]3[C@@H]2CC[C@]2(C)[C@@H](O)CC[C@@H]32)C[C@@H]1O | 0 | 0
32 | CCCCCCCCCN[C@H]1C[C@@]2(C)[C@@H](CC[C@@H]3[C@@H]2CC[C@]2(C)[C@@H](O)CC[C@@H]32)C[C@@H]1O | 3.9 | 89.9
33 | C[C@]12C[C@H](N3CCCCCC3)[C@@H](O)C[C@@H]1CC[C@@H]1[C@@H]2CC[C@]2(C)[C@@H](O)CC[C@@H]12 | 0 | 3.4

From ChEMBL document CHEMBL1157187, “Chemical synthesis of 2beta-amino-5alpha-androstane-3alpha,17beta-diol N-derivatives and their antiproliferative effect on HL-60 human leukemia cells” (Bioorg Med Chem, 2008)
